In PMC6751662, “Pharmacological and functional similarities of the human neuropeptide Y system in C. elegans challenges phylogenetic views on the FLP/NPR system” (Cell Communication and Signaling : CCS, 2019):

Assays:
Assay type in all cases: cell-based, C. elegans
[1] = biological target: T1, NPR-3 (Caenorhabditis elegans, UniProt P90745); assay: cAMP reporter gene assay, Gs (no forskolin), NPR-3; conditions: no forskolin, 4 h, transiently transfected HEK293, CRE-luciferase reporter, mean of >=3 independent experiments
T1 construct: expressed in transfected cells; host or cells: HEK293
T1 sequence (P90745 1-376): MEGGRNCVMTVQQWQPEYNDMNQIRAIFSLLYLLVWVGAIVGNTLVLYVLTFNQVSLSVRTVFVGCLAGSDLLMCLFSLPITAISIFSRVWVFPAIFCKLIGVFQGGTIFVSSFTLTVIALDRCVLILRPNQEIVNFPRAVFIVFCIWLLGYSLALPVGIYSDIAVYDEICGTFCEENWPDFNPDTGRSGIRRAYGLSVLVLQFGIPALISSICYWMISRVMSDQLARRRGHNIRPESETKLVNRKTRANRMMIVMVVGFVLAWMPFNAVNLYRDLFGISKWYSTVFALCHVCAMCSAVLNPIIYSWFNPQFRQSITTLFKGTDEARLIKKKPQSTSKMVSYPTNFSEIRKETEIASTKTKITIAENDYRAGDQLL
Method: (§1) Activation of Gs and Gi/o was assessed with a cAMP reporter gene assay. HEK293 cells grown to 70–80% confluency in 6-well plates were transiently co-transfected with vectors encoding the receptor and the cAMP reporter gene plasmid pGL4.29 [luc2P/CRE/Hygro] (Promega; 4 μg total, 1:1 ratio) using Metafectene Pro (3 μl/μg DNA; Biontex) following the manufacturer’s instructions. 16 h post transfection, the cells were seeded into white 384-well plates at a density of 20,000 cells/well. On the next day, the medium was removed and the cells were stimulated with 20 μl of peptide solution (or forskolin as positive control) in serum-free DMEM for 4 h. For measuring Gi/o activity, the peptide solutions additionally contained 1 μM forskolin to elevate cellular cAMP levels. After incubation, the luciferase substrate OneGlo in lysis buffer (Promega) was added and the luminescence was measured in a microplate reader Tecan Spark (Tecan). Data were analyzed with GraphPad Prism 5.03 and are shown as fold of basal or fold of forskolin in case of Gαi/o activity.
(§2) For in vitro activation, data is presented as mean ± SEM of at least three independent experiments conducted in technical triplicate. […] For the C. elegans NPRs, we considered the strongest response elicited by any of the peptides downstream of a particular receptor as the receptor’s maximal signal. This may or may not be the biological maximum that can be reached by the ‘true’ endogenous agonist. For the human receptors, the response to the established endogenous agonist reflected the maximal signal.

[2] = system: NPR-6; assay: cAMP reporter gene assay, Gs (no forskolin), NPR-6; conditions: no forskolin, 4 h, transiently transfected HEK293, CRE-luciferase reporter, mean of >=3 independent experiments
Method: as §1, §2

[3] = biological target: T2, NPR-11 (Caenorhabditis elegans, UniProt Q18179); assay: cAMP reporter gene assay, Gs (no forskolin), NPR-11; conditions: no forskolin, 4 h, transiently transfected HEK293, CRE-luciferase reporter, mean of >=3 independent experiments
T2 construct: expressed in transfected cells; host or cells: HEK293, transient
T2 sequence (Q18179 1-402): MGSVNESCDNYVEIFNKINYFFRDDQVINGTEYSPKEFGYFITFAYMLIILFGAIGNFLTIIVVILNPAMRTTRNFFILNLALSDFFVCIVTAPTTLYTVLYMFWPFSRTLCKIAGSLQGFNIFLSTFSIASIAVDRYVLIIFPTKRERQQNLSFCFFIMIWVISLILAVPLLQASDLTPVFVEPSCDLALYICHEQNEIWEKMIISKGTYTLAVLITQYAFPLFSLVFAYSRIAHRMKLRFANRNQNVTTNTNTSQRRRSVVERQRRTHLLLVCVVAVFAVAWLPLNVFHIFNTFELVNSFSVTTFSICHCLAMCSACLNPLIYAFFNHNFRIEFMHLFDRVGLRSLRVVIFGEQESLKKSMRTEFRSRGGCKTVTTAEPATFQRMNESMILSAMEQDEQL
Method: as §1, §2

[4] = biological target: T1, NPR-3; assay: IP accumulation assay, endogenous Gαq + mock, NPR-3; conditions: 1 h, HBSS + 20 mM LiCl, HEK293 receptor + empty vector, HTRF IP-One, mean of >=3 independent experiments
Method: (§3) For measuring IP accumulation, HEK293 cells grown to 70–80% confluency in 6-well plates were transiently co-transfected using Metafectene Pro (2.5 μl/μg DNA; Biontex) with plasmids containing receptor and/or mock (empty pcDNA3.1) (for endogenous Gq-coupling) using 4 μg total DNA in a ratio of 3:1 following the manufacturer’s instructions. For testing Gα16- and GαΔ6qi4myr-coupling, plasmids encoding the corresponding Gα protein were co-transfected instead of mock. Gα16 is naturally promiscuous and stimulates the phospholipase C (PLC) pathway leading to IP production, while the exchange of the C-terminal four amino acids of Gαq for the corresponding residues of Gαi1 in the chimeric GαΔ6qi4myr confers the ability to couple to Gi/o protein-preferring receptors but still stimulate PLC, thus specifically redirecting downstream cellular signaling. 16 h post transfection, the cells were seeded into white 384-well plates at a density of 20,000 cells/well. Media was removed 24 h later and the cells were incubated with the indicated concentration of peptides for 1 h in HBSS + 20 mM LiCl. IP accumulation was measured with the HTRF-based IP-One Gq kit (Cisbio) on a microplate reader (Tecan Spark).
(§4) For in vitro activation, data is presented as mean ± SEM of at least three independent experiments conducted in technical triplicate. […]

[5] = biological target: T3, NPR-5b (Caenorhabditis elegans, UniProt Q6F3C9); assay: IP accumulation assay, endogenous Gαq + mock, NPR-5b; conditions: 1 h, HBSS + 20 mM LiCl, HEK293 receptor + empty vector, HTRF IP-One, mean of >=3 independent experiments
T3 sequence (Q6F3C9 1-433): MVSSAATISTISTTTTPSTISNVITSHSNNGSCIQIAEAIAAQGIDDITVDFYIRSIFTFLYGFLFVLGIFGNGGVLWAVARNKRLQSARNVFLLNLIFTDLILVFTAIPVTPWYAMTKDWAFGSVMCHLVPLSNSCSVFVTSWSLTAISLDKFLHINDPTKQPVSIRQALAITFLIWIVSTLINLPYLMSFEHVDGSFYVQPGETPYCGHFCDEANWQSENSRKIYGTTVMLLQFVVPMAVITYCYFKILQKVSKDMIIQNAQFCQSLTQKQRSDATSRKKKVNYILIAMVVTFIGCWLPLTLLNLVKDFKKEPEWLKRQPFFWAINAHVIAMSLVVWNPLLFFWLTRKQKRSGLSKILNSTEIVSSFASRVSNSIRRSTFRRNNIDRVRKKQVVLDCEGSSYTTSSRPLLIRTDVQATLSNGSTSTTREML
Method: as §3, §4

[6] = biological target: T2, NPR-11; assay: IP accumulation assay, endogenous Gαq + mock, NPR-11; conditions: 1 h, HBSS + 20 mM LiCl, HEK293 receptor + empty vector, HTRF IP-One, mean of >=3 independent experiments
Method: as §3, §4

[7] = system: NPR-6; assay: IP accumulation assay, co-transfected Gα16, NPR-6; conditions: 1 h, HBSS + 20 mM LiCl, HEK293 receptor + Gα16, HTRF IP-One, mean of >=3 independent experiments
Method: as §3, §4

[8] = 0.1 nM peptide (so in the source)

cAMP assay Gs, NPR-3 ([1]; 0.1 µM peptide): 0.86 x-fold of basal | cAMP assay Gs, NPR-3 ([1]; 10 µM peptide): 0.85 x-fold of basal | cAMP assay Gs, NPR-11 ([3]; 0.1 µM peptide): 0.70 x-fold of basal | cAMP assay Gs, NPR-11 ([3]; 10 µM peptide): 0.69 x-fold of basal | IP assay endog. Gαq + mock, NPR-3 [4, 8]: 0.92 x-fold of basal | IP assay endog. Gαq + mock, NPR-3 ([4]; 10 µM peptide): 1.07 x-fold of basal | IP assay endog. Gαq + mock, NPR-5b [5, 8]: 0.93 x-fold of basal | IP assay endog. Gαq + mock, NPR-5b ([5]; 10 µM peptide): 1.11 x-fold of basal | IP assay endog. Gαq + mock, NPR-11 [6, 8]: 1.05 x-fold of basal | IP assay endog. Gαq + mock, NPR-11 ([6]; 10 µM peptide): 1.09 x-fold of basal
Substance: APKPKFIRF-NH2 [FLP-5-1, C. elegans FMRFamide-like peptide, C-terminally amidated, synthesized by SPPS]
cAMP assay Gs, NPR-6 ([2]; 0.1 µM peptide): 0.68 x-fold of basal | cAMP assay Gs, NPR-6 ([2]; 10 µM peptide): 0.57 x-fold of basal | IP assay endog. Gαq + Gα16, NPR-6 [7, 8]: 1.01 x-fold of basal | IP assay endog. Gαq + Gα16, NPR-6 ([7]; 10 µM peptide): 0.96 x-fold of basal
